Data as given in patent US20180057565A1, “STABILIZED POLYPEPTIDE INSULIN RECEPTOR MODULATORS” (President and Fellows of Harvard College, priority 2012, published 2018).
pIC50, pKd: −log10 of the molar value. Bridge positions count the residues as written; N and C are the ends. Square brackets hold non-standard residues; d marks the D form. Peptide text beside a SMILES is read from it. R8 = C=CCCCCCC[C@@](C)(N)C(=O)O; S5 = C=CCCC[C@](C)(N)C(=O)O

Key:
[1] = target: T1, L1-CR-L2 (Homo sapiens, UniProt P06213); test: Affinity pull-down of IR construct by biotinylated peptide on streptavidin beads; details: 1% BSA in binding buffer, Western blot of His5 tag
T1 construct: made in house; host or cells: HEK293 (stably transfected; protein used from expression medium)
Source text: (§1) FIGS. 8A-8C depict the affinity pull-down of IR by SIRB-B5. 1% BSA added to binding buffer. FIG. 8A depicts the pull-down assay: Biotinylated SIRB-B5 could be immobilized on streptavidincoated beads and pull down IR from expression medium. Precipitated protein could be visualized by Western blot of His5 tag. FIG. 8B depicts L1-CR-L2 pulled down by SIRB-B5. FIG. 8C depicts mIR-Fn1-Ex10 pulled down by SIRB-B5 and competition by insulin.

[2] = system: mIR-Fn1-Ex10; test: as above; details: 1% BSA in binding buffer, competition by insulin
Source text: as §1

[3] = system: phosphor-Akt S473; test: Dose-response ELISA of phospho-Akt S473 in CHO-IR cell lysates; type: cell-based; details: 50 nM insulin
Procedure: FIG. 6 depicts the dose-response of antagonist SIRB-B5. CHO-IR cells were treated with 50 nM insulin and increasing concentrations of SIRB-B5. ELISA assays of phosphor-IR Y1150/1151 and phosphor-Akt S473 were performed with cell lysates.
For further verification of biological activity, the SIRB peptide library was screened again using IR auto-phosphorylation as an indicator. […] A possible explanation for the differential plateau values is that phosphorylation of Akt1 is controlled by many other pathways as well and thus difficult to abolish completely.

[4] = target: T2, IGF-1R (Homo sapiens, UniProt P08069); test: IGF-1R phosphorylation Western blot after immunoprecipitation, HepG2 cells with IGF1; type: cell-based; details: in the presence of IGF1
T2 construct: host or cells: HepG2
T2 sequence (P08069 31-736 limits assumed): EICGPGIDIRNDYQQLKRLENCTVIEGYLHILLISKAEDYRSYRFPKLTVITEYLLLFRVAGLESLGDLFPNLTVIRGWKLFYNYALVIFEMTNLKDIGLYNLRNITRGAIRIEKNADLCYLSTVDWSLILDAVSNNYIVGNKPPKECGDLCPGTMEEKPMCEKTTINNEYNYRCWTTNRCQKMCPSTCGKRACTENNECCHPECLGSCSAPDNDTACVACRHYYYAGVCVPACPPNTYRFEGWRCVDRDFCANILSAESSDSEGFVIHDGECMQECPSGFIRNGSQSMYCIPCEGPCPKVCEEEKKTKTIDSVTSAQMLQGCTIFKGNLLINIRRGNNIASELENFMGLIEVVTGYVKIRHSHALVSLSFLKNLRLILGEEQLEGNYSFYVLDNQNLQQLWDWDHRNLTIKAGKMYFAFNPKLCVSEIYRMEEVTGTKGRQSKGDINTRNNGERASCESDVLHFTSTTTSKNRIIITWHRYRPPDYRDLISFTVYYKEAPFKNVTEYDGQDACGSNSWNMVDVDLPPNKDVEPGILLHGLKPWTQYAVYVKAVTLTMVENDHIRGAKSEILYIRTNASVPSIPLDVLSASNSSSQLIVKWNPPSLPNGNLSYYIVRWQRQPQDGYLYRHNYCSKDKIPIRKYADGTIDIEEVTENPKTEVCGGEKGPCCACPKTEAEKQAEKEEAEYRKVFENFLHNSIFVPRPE
T2 sequence (P08069 741-1367 partner limits assumed): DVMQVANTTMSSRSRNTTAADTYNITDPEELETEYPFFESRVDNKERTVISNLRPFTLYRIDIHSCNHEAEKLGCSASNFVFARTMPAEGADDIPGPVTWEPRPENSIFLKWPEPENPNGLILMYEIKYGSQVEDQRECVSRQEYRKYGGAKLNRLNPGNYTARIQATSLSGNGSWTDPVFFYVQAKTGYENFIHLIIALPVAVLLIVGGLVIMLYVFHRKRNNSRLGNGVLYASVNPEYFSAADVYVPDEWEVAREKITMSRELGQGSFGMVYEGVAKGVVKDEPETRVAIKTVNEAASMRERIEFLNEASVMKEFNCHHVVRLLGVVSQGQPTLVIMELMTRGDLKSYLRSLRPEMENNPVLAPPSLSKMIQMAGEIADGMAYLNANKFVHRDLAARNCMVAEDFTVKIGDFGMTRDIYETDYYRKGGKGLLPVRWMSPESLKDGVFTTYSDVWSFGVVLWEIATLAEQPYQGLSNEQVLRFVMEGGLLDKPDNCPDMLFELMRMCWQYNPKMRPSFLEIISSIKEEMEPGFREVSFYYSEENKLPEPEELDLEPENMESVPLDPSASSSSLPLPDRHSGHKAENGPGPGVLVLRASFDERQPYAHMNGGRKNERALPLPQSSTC
Procedure: FIG. 11 depicts SIRB-B5 antagonism on IGF-1R. HepG2 cells were treated with SIRB-B5 in the presence of IGF1. IGF-1R was immunoprecipitated to be distinguished from IR on a Phospho-IR/IGF-1R Western blot.

[5] = target: T3, IRβ Tyr1150/1151 (Homo sapiens, UniProt P06213); test: Immunoblotting of IR auto-phosphorylation in CHO-IR cells; type: cell-based; details: 10 μM peptides in the presence of 50 nM insulin
T3 construct: expressed in transfected cells; host or cells: CHO-IR (CHO cells stably expressing IR, from the Morris White lab)
Procedure: To perform this type of direct assay, a CHO-IR cell line that stably expresses IR (provided by Morris White lab) was treated with SIRB peptides to detect auto-phosphorylation of IRβ Tyr1150/1151 (Cell signaling) by western blot.
CHO-IR cells were seeded in 24-well plates and grown in Ham's F-12, 10% FBS medium to >80% confluent (in ˜48 hours). The cells are starved in Ham's F-12 medium without FBS for two hours prior to experiment.
For agonistic studies, cells were incubated in fresh Ham's F-12 without FBS (negative control and baseline for normalization) or the same medium with 50 nM insulin (positive control and 100% activity for normalization). Experimental wells were incubated in the same medium containing various concentrations of peptide (typically 1 uM, 10 uM, and 100 uM). All cells were incubated at 37° C. for 15 min or 30 min.
For antagonistic studies, the experiment could be done with or without pre-treatment with peptides. In the case without, cells were incubated in fresh Ham's F-12 without FBS (negative control and baseline for normalization) or the same medium with 50 nM insulin (positive control and 100% activity for normalization).
Experimental wells were incubated in the same medium containing various concentrations of peptide (typically 1 uM, 10 uM, and 100 uM) AND 50 nM insulin. All cells were incubated at 37 C. for 15 min. […]

[6] = system: rat adipocytes; details: cited from earlier work
[7] = system: phosphorylation of Akt1 at Ser473; test: Phospho-Akt1 (Ser473) sandwich ELISA in HepG2 cells, antagonism and agonism screening; type: cell-based, human
Procedure: We note that although S371 has a high affinity to IR, it can barely induce downstream effects such as lipogenesis in rat adipocytes, which may reconcile with the result of no increase in downstream Akt phosphorylation. The effect of the peptides on insulin signaling was determined using a sandwich ELISA assay kit (Cell Signaling) designed to measure phosphorylation of Akt Ser473, a downstream target in the insulin signaling pathway. For each compound, cells were treated both in the presence and absence of insulin to reveal either antagonism or agonism, respectively, of insulin signaling.
Preparation: insulin stock solution at 50 μM (0.3 mg/ml or 30 mg/100 ml). To make stock: dissolved 10 mg in 1 ml 0.01 N HCl, heat at 37° C. to dissolve, then added to 32 ml, PBS, sterile filtered and stored at −20 C. Working stock would stay in good quality for 1 month at 4° C. […]
For the phospho-Akt1 ELISA assay, clarified lysate was first quantified using the standard BCA method, and all samples were adjusted to have the same total protein concentration. […]
The following day, wells were drained and washed four times with 1× Wash Buffer. […] Chemiluminescence was read under RLU mode in the […] SpectraMax Plate Reader at […] within 1-10 minutes of addition of substrate.

[8] = target: IR (Homo sapiens, UniProt P06213); details: read-out: affinity to the IR (kD); cited from earlier work

CC(C)C[C@H](NC(=O)[C@H](CCC(N)=O)NC(=O)[C@H](CCCNC(=N)N)NC(=O)[C@]1(C)CCCC=CCCCCCC[C@@](C)(NC(=O)[C@H](CC(=O)O)NC(=O)[C@H](CC(C)C)NC(=O)[C@H](CO)NC(=O)CN)C(=O)N[C@@H](CO)C(=O)N[C@@H](Cc2ccccc2)C(=O)N[C@@H](Cc2ccc(O)cc2)C(=O)N[C@@H](CC(=O)O)C(=O)N[C@@H](Cc2c[nH]c3ccccc23)C(=O)N[C@@H](Cc2ccccc2)C(=O)N1)C(=O)NCC(N)=O [SIRB-B5] (H-GSLD[R8]SFYDWF[S5]RQLG-NH2; staple 5-12; C-terminus assumed)
pull-down of L1-CR-L2 [1]: pulled down | pull-down of mIR-Fn1-Ex10 [2]: pulled down | pIC50 ([3]; CHO-IR cells, read-out: IC50, inhibition of insulin-induced phosphorylation of Akt): 5.74 | Akt phosphorylation, % of control ([3]; maximal dose of 100 μM peptide): 16% | antagonism on IGF-1R [4]: antagonism | effect on insulin-induced auto-phosphorylation of IR (Phospho-IR western blot) [5]: significant reduction

S371: previously reported insulin-mimetic site 1 peptide of 16 residues from phage display; lead for stapling (GSLDESFYDWFERQLG)
induction of lipogenesis [6]: barely induce | reduction of the insulin-induced Akt-S473 phosphorylation signal ([7]; 10 μM peptide in the presence of 50 nM insulin): 20% | agonistic effect on Akt phosphorylation, peptide alone ([7]; absence of insulin): no trace of any increase in phosphorylation | pKd [8]: 7.40
